{
  "source": "patent US7833964B2",
  "about": "“Methods of reducing visceral fat by increasing levels of insulin-like growth factor-I (IGF-I)” (Tercica, Inc., priority 2003, dated 2010)",
  "origin": "cited, not measured here",
  "settings": "IGF-I administration in human subjects; cited from earlier work",
  "data": [
    {"substance": "IGF-I: recombinant human insulin-like growth factor-I from Genentech; sterile benzyl alcohol-preserved solution, 70 mg in 7 mL acetate/NaCl, pH 5.4; given SC", "values": [
      {"measurement": "effect on body fat and body composition", "value": "little effect"}
    ]}
  ]
}
